# Source: patent US11503826B2, “Low volatility auxin herbicide formulations” (priority 2009, dated 2022)
# Counter-ions that a name gives are not always drawn. Like-named read-outs stand apart in the source and are kept apart here.
# Assays:
# [1] = Distillation volatility: dicamba in distillate by HPLC/MS; format: physicochemical; settings: for ppm Dicamba in distillate: Table 4h summary, 5% a.e. salt solution
# Procedure: The pH was measured on a standard Orion Model 320 pH meter of each neat solution.
# Simple distillation using a short path still was used to collect the water distillate containing the dicamba in the vapor phase of the salt solutions. A 50 mL distillation flask was used. The distillation receiver was a “cow” type with four 2 mL graduated sections. The solutions were heated at the 30% setting of the GlassCol heating unit and the boiling point of each distillation was noted. The first 2 ml of distillate was collected, and the receiver rotated to avoid collection of any further distillate in that section as the distillation flask cooled. The 2 mL sample was quantitatively transferred by pipette to HPLC vials for later analysis. Between each distillation the distillation apparatus was washed with 10 volumes of tap water, 10 volumes of distilled water, rinsed with acetone, and dried in a 60° C. oven. Each distillation was run in triplicate.
# The distillate was collected and analyzed for dicamba concentration using HPLC/Mass Spectroscopy (MS). The HPLC column was an Agilent Zorbax Eclipse XDB-C8, 4.6×150 mm, 5u, PN 993967-90. Mobile phase A was 0.1% formic acid in D.I. water. Mobile phase B was 0.1% formic acid in acetonitrile. A flow rate of 1.2 mL/min was used and an injection volume of 5, 10, 15 or 25 ul was used depending on the dicamba level in the sample. The following gradient was used: […]
# The MS parameters were as follows: Type SIR; ES-ion mode; 0.05 second inter channel delay; 0.05 second interscan time; 0.5 span (Da); 10 minutes elapsed time; and 6-6000 ppb calibration range. […] Channel 2 mass was 177 (Da); Dwell was 0.25(s); Cone(V)=tune and; 0.05(s) delay.
# [2] = Aqueous solubility of dicamba acid and dicamba salts; settings: for solubility 20° C. a.e. / solubility 20° C. a.i.: equilibrated 5 to 7 days at 20° C.; for solubility 20° C. a.e.: 0.45 micron filter, HPLC; for aqueous solubility wt % a.i. @20° C.: dicamba salts
# Text: The solution was then passed through a 0.45 micron filter and assayed by HPLC for soluble dicamba.
# [3] = Tank mix compatibility of dicamba salts with potassium glyphosate; format: physicochemical; settings: for g to crystals: grams dicamba a.e. (35.8% a.e. salt solution) added to […] Roundup POWERMAX solution to induce crystallization or precipitation
# Text: The weight of the dicamba solution that caused precipitation was noted. The results are reported in Table 12a below where “salt” refers to the dicamba salt and “g to crystals” refers to the total amount of grams of dicamba a.e. that were required to induce crystallization or precipitation of crystals.
# [4] = 5% a.e. DMA Dicamba solution
# [5] = 20° C.; 'is believed to have'; cited from earlier work
# [6] = test system: eyes of rabbit
# Procedure: Eye irritation measurement can be done according to the methods provided in U.S. Environmental Protection Agency Office of Prevention, Pesticides and Toxic Substances, Health Effects Test Guidelines (for example, OPPTS 870.2400 Acute Eye Irritation, August 1998).
# The eye irritation potential of an aqueous formulation of the present invention was evaluated. […] Eye irritation testing was done according to the methods provided in U.S. Environmental Protection Agency Office of Prevention, Pesticides and Toxic Substances, Health Effects Test Guidelines: OPPTS 870.2400 Acute Eye Irritation. The eyes of 3 rabbit animals were treated with the formulation and were scored for effects on the cornea, iris, and conjunctivae (redness, swelling and discharge).
# [7] = format: physicochemical; settings: 38.5 wt % a.e. solutions (Table 4i)
# Procedure: In a further set of experiments, measurements of dicamba concentration in the gas phase (air) above 38.5 wt % a.e. solutions of various dicamba salts was measured. 5 mL of each sample of dicamba was placed into a 50 mL plastic centrifuge tube with four holes approximately ⅛ in diameter drilled into the tube at the 10 mL line. A 22 mm×30 mm PUF (SKC ct. #226-124) was placed into a glass tube of app. 20 mm diameter with parafilm wrapped around the outside to obtain a snug fit into the top of the centrifuge tube. A hose was connected to the other end of the glass tube leading to a vacuum line. The air flow was regulated to app. 2 L/min using a flow controller (about 0.4 L air/min-mL sample). Air was pulled through the tube at […] for approximately 1 day. Note that the air conditions of flow rate, temperature, pressure and composition (e.g., relative humidity) are not narrowly critical as long as the various samples are analyzed under similar conditions. For instance, air at from about 5° C. to about 40° C., from about 0.5 to about 1.5 bar pressure, from about 0% to about 95% relative humidity, and at a flow rate of from about 0.1 to 10 L/min-mL sample could be suitably used for volatility analysis. The PUF was removed from the glass tube, extracted with 20 mL methanol and the resulting solution analyzed for dicamba concentration by LC-MS. The results are shown in Table 4i below where “wt % a.e.” refers to the dicamba concentration, “μg/mL” refers to the dicamba concentration in the distillate, “μg dicamba” refers to the total dicamba extracted from the PUF by 20 mL methanol, and “ng/L air” and “moles/L air” refer to the dicamba concentration in the gas phase above the solution.
smiles,measurement,setting,value
"COc1c(Cl)ccc(Cl)c1C(=O)O [Dicamba sodium salt, reference compound]",Mean Dicamba in Distillate,"[1]; 1% a.e. dicamba, solution pH 3.31",3.42 ppm
same,Mean Dicamba in Distillate,"[1]; 1% a.e. dicamba, solution pH 4.25",0.70 ppm
same,Mean Dicamba in Distillate,"[1]; 1% a.e. dicamba, solution pH 6.19",0.13 ppm
same,Mean Dicamba in Distillate,"[1]; 1% a.e. dicamba, solution pH 9.82",0.09 ppm
same,Mean Dicamba in Distillate,"[1]; 1% a.e. dicamba, solution pH 11.15",0.06 ppm
same,Mean Dicamba in Distillate,"[1]; 2% a.e. dicamba, solution pH 3.33",5.74 ppm
same,Mean Dicamba in Distillate,"[1]; 2% a.e. dicamba, solution pH 4.29",1.39 ppm
same,Mean Dicamba in Distillate,"[1]; 2% a.e. dicamba, solution pH 6.28",0.32 ppm
same,Mean Dicamba in Distillate,"[1]; 2% a.e. dicamba, solution pH 9.93",0.16 ppm
same,Mean Dicamba in Distillate,"[1]; 2% a.e. dicamba, solution pH 11.50",0.15 ppm
same,Mean Dicamba in Distillate,"[1]; 5% a.e. dicamba, solution pH 3.36",11.57 ppm
same,Mean Dicamba in Distillate,"[1]; 5% a.e. dicamba, solution pH 4.34",2.36 ppm
same,Mean Dicamba in Distillate,"[1]; 5% a.e. dicamba, solution pH 6.32",0.77 ppm
same,Mean Dicamba in Distillate,"[1]; 5% a.e. dicamba, solution pH 10.36",0.45 ppm
same,Mean Dicamba in Distillate,"[1]; 5% a.e. dicamba, solution pH 12.15",0.22 ppm
same,ppm Dicamba in distillate,[1]; pH 6.32,0.8 ppm
same,aqueous solubility Approximate g a.e./L @20° C.,"[2]; 20° C., listed as sodium salt",364 g a.e./L
same,aqueous solubility wt % a.e. @20° C.,"[2]; 20° C., listed as sodium salt",36.3 wt % a.e.
same,crystal formation on drying on a glass surface,[2]; Example 10,formed crystals very readily
same,Comments (crystal formation),"[2]; Table 10a, dicamba salt solutions, listed as Na",Crystals form easily
same,solubility 0° C. a.e.,"[2]; Table 10a, dicamba salt, equilibrated 5 to 7 days at 0° C., acid equivalent, listed as Na",33 wt %
same,solubility 0° C. a.i.,"[2]; Table 10a, dicamba salt, equilibrated 5 to 7 days at 0° C., active ingredient, listed as Na",36.3 wt %
same,solubility 20° C. a.e.,"[2]; Table 10a, dicamba salt, acid equivalent, listed as Na",36.3 wt %
same,solubility 20° C. a.i.,"[2]; Table 10a, dicamba salt, active ingredient, listed as Na",40.3 wt %
same,aqueous solubility wt % a.e. @20° C.,"[2]; Table 10b, second experiment, dicamba acid and salts, 20° C., listed as sodium salt",36.3 wt % a.e.
same,aqueous solubility wt % a.i. @20° C.,"[2]; Table 10b, second experiment, 20° C., listed as sodium salt",40.3 wt % a.i.
same,crystallization in the presence of potassium glyphosate,[3]; 35.8% a.e. dicamba salt solution added to […] Roundup POWERMAX solution,induced crystallization
same,g to crystals,[3],13.6 g
NCCO [MEA],ppm Dicamba in distillate,[1]; pH 6.87,0.5 ppm
same,ppm Dicamba in distillate,[1]; pH 8.03,0.3 ppm
same,solubility 20° C. a.e.,"[2]; Table 10a, dicamba salt, acid equivalent",>71.9 wt %
same,solubility 20° C. a.i.,"[2]; Table 10a, dicamba salt, active ingredient",>91.8 wt %
same,Comment,[3]; dicamba salt solution added to […] Roundup POWERMAX solution,"Clear solution, no precipitate"
same,g to crystals,[3],>34.2 g
CNC.COc1c(Cl)ccc(Cl)c1C(=O)O [Dicamba DMA salt],pH Solution After Distillation,[4]; starting solution pH 3.60,3.58
same,ppm DMA in Distillate,[4]; starting solution pH 3.60,Undetectable
same,pH Solution After Distillation,[4]; starting solution pH 8.20,7.04
same,ppm DMA in Distillate,[4]; starting solution pH 8.20,400 ppm
same,pH Solution After Distillation,[4]; starting solution pH 10.10,6.4
same,ppm DMA in Distillate,[4]; starting solution pH 10.10,5000 ppm
same,amine in the distillate by HPLC analysis,[4]; acidic pH (3.6),no detectable amine
same,solubility g a.e./L,[5],~600 g a.e./L
same,solubility wt % a.e.,[5],about 45 wt % a.e.
COc1c(Cl)ccc(Cl)c1C(=O)O.NCCO [Dicamba MEA salt],time after treatment at which all eyes were free of positive scores,"[6]; 61 wt % a.e., pH 8.5",7 days
same,time by which all eyes were free of all irritation,"[6]; 61 wt % a.e., pH 8.5",≤ 10 days
same,eye irritation rating in words,"[6]; Example 16: 61 wt % a.e. aqueous MEA dicamba, pH 8.5, 3 rabbits, b51: concentrate formulations at pH about 8",moderately irritating
same,ocular findings in all treated eyes,"[6]; within 24 hours after treatment, 61 wt % a.e., pH 8.5","corneal opacity, iritis and conjunctivitis"
same,aqueous solubility wt % a.e. @20° C.,"[2]; Table 10b, second experiment, dicamba acid and salts, 20° C.",66.1 wt % a.e.
same,aqueous solubility wt % a.i. @20° C.,"[2]; Table 10b, second experiment, 20° C.",84.4 wt % a.i.
same,crystal formation from concentrated salt solution,"[2]; solubility experiment, Example 10",did not form crystals
same,"dicamba concentration in the gas phase above the solution, comparison",[7],"lower than the acid or the sodium, potassium and DMA salts"
same,"gas concentration, times less than the commercial product BANVEL",[7],~20 times
